These results are taken from patent US11753411B2, “Substituted pyrazolo[1,5-a]pyrimidines as TYK2 pseudokinase ligands” (Ventyx Biosciences, Inc., priority 2019, dated 2023).

In this experiment the test system is IFN-a/Jak1 Tyk2. The experiment in a line: Co-stimulation assay in lysed whole blood: IFNa (JAK1/TYK2) stimulated STAT1 phosphorylation. Type of experiment: cell-based. Conditions: Homo sapiens, 20 min, 100 ng/mL IFNa (with 10 ng/mL GM-CSF), pSTAT by flow cytometry. The method in brief:
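Lysed human whole blood (RBC-lysed, resuspended in cRPMI) pre-incubated with compound 1 h at 37 °C, then stimulated 20 min with IFNa 100 ng/mL plus GM-CSF 10 ng/mL (final). Fixed, permeabilised, stained for pSTAT1 (PE) and pSTAT5 (AF488); flow cytometry read-out, ≥5,000–10,000 cells acquired.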

As to `CNC(=O)Nc1cnn2c(NC)cc(Nc3cc(OC)cc4c3OCCO4)nc12` [Compound 81, 1-(5-((7-methoxy-2,3-dihydrobenzo[b][1,4]dioxin-5-yl)amino)-7-(methylamino)pyrazolo[1,5-a]pyrimidin-3-yl)-3-methylurea], the IC50 is < 1 µM.
The molecule `CNc1cc(Nc2cc(C(F)(F)F)cc3c2OCCO3)nc2c(NC(=O)NC3CC3)cnn12` [Compound 82, 1-cyclopropyl-3-(7-(methylamino)-5-((7-(trifluoromethyl)-2,3-dihydrobenzo[b][1,4]dioxin-5-yl)amino)pyrazolo[1,5-a]pyrimidin-3-yl)urea] gave a concentration for half-maximal inhibition (IC50) of 1 to 10 µM.
As to `CNC(=O)Nc1cnn2c(NC)cc(Nc3cc(C#N)cc4c3OCCO4)nc12` [Compound 83, 1-(5-((7-cyano-2,3-dihydrobenzo[b][1,4]dioxin-5-yl)amino)-7-(methylamino)pyrazolo[1,5-a]pyrimidin-3-yl)-3-methylurea], the IC50 is < 1 µM.
Next, `CNc1cc(Nc2cc(OC)cc3c2OCCO3)nc2c(NC(=O)NC3CC3)cnn12` [Compound 84, 1-cyclopropyl-3-(5-((7-methoxy-2,3-dihydrobenzo[b][1,4]dioxin-5-yl)amino)-7-(methylamino)pyrazolo[1,5-a]pyrimidin-3-yl)urea]: 1 to 10 µM.
Next, `CNc1cc(Nc2cc(Cl)cc3c2OCCO3)nc2c(NC(=O)NC3CC3)cnn12` [Compound 85, 1-(5-((7-chloro-2,3-dihydrobenzo[b][1,4]dioxin-5-yl)amino)-7-(methylamino)pyrazolo[1,5-a]pyrimidin-3-yl)-3-cyclopropylurea]: < 1 µM; `CNC(=O)Nc1cnn2c(NC)cc(-c3cn(C4COC4)c4ncccc34)nc12` [Compound 86, 1-methyl-3-(7-(methylamino)-5-(1-(oxetan-3-yl)-1H-pyrrolo[2,3-b]pyridin-3-yl)pyrazolo[1,5-a]pyrimidin-3-yl)urea]: 1 to 10 µM.
Next, `CNC(=O)Nc1cnn2c(NC)cc(-c3c[nH]c4ncccc34)nc12` [Compound 88, 1-methyl-3-(7-(methylamino)-5-(1H-pyrrolo[2,3-b]pyridin-3-yl)pyrazolo[1,5-a]pyrimidin-3-yl)urea]: 1 to 10 µM.
As for `CNc1cc(Nc2cc(C#N)cc3c2OCCO3)nc2c(NC(=O)NC3CC3)cnn12` [Compound 89, 1-(5-((7-cyano-2,3-dihydrobenzo[b][1,4]dioxin-5-yl)amino)-7-(methylamino)pyrazolo[1,5-a]pyrimidin-3-yl)-3-cyclopropylurea], the IC50 is < 1 µM.
With `CNC(=O)Nc1cnn2c(NC)cc(Nc3c(F)cccc3F)nc12` [Compound 90, 1-(5-((2,6-difluorophenyl)amino)-7-(methylamino)pyrazolo[1,5-a]pyrimidin-3-yl)-3-methylurea], the IC50 was in the range of 1 to 10 µM.
Next, `CNC(=O)Nc1cnn2c(NC)cc(Nc3cncc4ccccc34)nc12` [Compound 91, 1-(5-(isoquinolin-4-ylamino)-7-(methylamino)pyrazolo[1,5-a]pyrimidin-3-yl)-3-methylurea]: 1 to 10 µM; `CNC(=O)Nc1cnn2c(NC)cc(Nc3ccnc4c3OCCO4)nc12` [Compound 92, 1-(5-((2,3-dihydro-[1,4]dioxino[2,3-b]pyridin-8-yl)amino)-7-(methylamino)pyrazolo[1,5-a]pyrimidin-3-yl)-3-methylurea]: 1 to 10 µM.
Next, `CNc1cc(Nc2cccc3c2OCCO3)nc2c(NC(=O)NC3CCC3)cnn12` [Compound 93, 1-cyclobutyl-3-(5-((2,3-dihydrobenzo[b][1,4]dioxin-5-yl)amino)-7-(methylamino)pyrazolo[1,5-a]pyrimidin-3-yl)urea]: < 1 µM.
`CNC(=O)Nc1cnn2c(NC)cc(Nc3cccnc3OC3CCOCC3)nc12` [Compound 94, 1-methyl-3-(7-(methylamino)-5-((2-((tetrahydro-2H-pyran-4-yl)oxy)pyridin-3-yl)amino)pyrazolo[1,5-a]pyrimidin-3-yl)urea] returned an IC50 of 1 to 10 µM.
`CNC(=O)Nc1cnn2c(NC)cc(Nc3cccc4c3NC(=O)CO4)nc12` [Compound 95, 1-methyl-3-(7-(methylamino)-5-((3-oxo-3,4-dihydro-2H-benzo[b][1,4]oxazin-5-yl)amino)pyrazolo[1,5-a]pyrimidin-3-yl)urea]: the IC50 was 1 to 10 µM.
Regarding `CNC(=O)Nc1cnn2c(NC)cc(Nc3cc(C4CC4)cc4c3OCCO4)nc12` [Compound 96, 1-(5-((7-cyclopropyl-2,3-dihydrobenzo[b][1,4]dioxin-5-yl)amino)-7-(methylamino)pyrazolo[1,5-a]pyrimidin-3-yl)-3-methylurea], the IC50 was < 1 µM.
Next, `CNC(=O)Nc1cnn2c(NC)cc(Nc3cccc(OC)c3OC)nc12` [Compound 97, 1-(5-((2,3-dimethoxyphenyl)amino)-7-(methylamino)pyrazolo[1,5-a]pyrimidin-3-yl)-3-methylurea]: 1 to 10 µM.
With `CNC(=O)Nc1cnn2c(NC)cc(Nc3cccc4c3OCC(=O)N4)nc12` [Compound 98, 1-methyl-3-(7-(methylamino)-5-((3-oxo-3,4-dihydro-2H-benzo[b][1,4]oxazin-8-yl)amino)pyrazolo[1,5-a]pyrimidin-3-yl)urea], the IC50 lay within 1 to 10 µM.
In the case of `CNc1cc(Nc2cccc3c2OCCO3)nc2c(NC(=O)NCC(F)(F)F)cnn12` [Compound 99, 1-(5-((2,3-dihydrobenzo[b][1,4]dioxin-5-yl)amino)-7-(methylamino)pyrazolo[1,5-a]pyrimidin-3-yl)-3-(2,2,2-trifluoroethyl)urea], the IC50 is < 1 µM.
In turn, `CNc1cc(Nc2cccc3c2OCCO3)nc2c(NC(=O)NCCCO)cnn12` [Compound 100, 1-(5-((2,3-dihydrobenzo[b][1,4]dixoin-5-y)amino)-7-(methylamino)pyrazolo[1,5-a]pyrimidin-3-yl)-3-(3-hydroxypropyl)urea] displayed a half-maximal inhibitory concentration (IC50) of 1 to 10 µM.
Next, `C#CCNC(=O)Nc1cnn2c(NC)cc(Nc3cccc4c3OCCO4)nc12` [Compound 101, 1-(5-((2,3-dihydrobenzo[b][1,4]dioxin-5-yl)amino)-7-(methylamino)pyrazolo[1,5-a]pyrimidin-3-yl)-3-(prop-2-yn-1-yl)urea]: < 1 µM; `CNc1cc(Nc2cccc3c2OCCO3)nc2c(NC(=O)NCC#N)cnn12` [Compound 102, 1-(cyanomethyl)-3-(5-((2,3-dihydrobenzo[b][1,4]dioxin-5-yl)amino)-7-(methylamino)pyrazolo[1,5-a]pyrimidin-3-yl)urea]: < 1 µM.
Consider `CNc1cc(Nc2cccc3c2OCCO3)nc2c(NC(=O)NCC3CC3)cnn12` [Compound 103, 1-(cyclopropylmethyl)-3-(5-((2,3-dihydrobenzo[b][1,4]dioxin-5-yl)amino)-7-(methylamino)pyrazolo[1,5-a]pyrimidin-3-yl)urea], for which the IC50 was 1 to 10 µM.
Next, `CNC(=O)Nc1cnn2c(NC)cc(Nc3cccc4occc34)nc12` [Compound 104, 1-(5-(benzofuran-4-ylamino)-7-(methylamino)pyrazolo[1,5-a]pyrimidin-3-yl)-3-methylurea]: < 1 µM; `CNc1cc(Nc2cc(F)cc3c2OCCO3)nc2c(NC(=O)NC3CCC3)cnn12` [Compound 105, 1-cyclobutyl-3-(5-((7-fluoro-2,3-dihydrobenzo[b][1,4]dioxin-5-yl)amino)-7-(methylamino)pyrazolo[1,5-a]pyrimidin-3-yl)urea]: < 1 µM.
